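Protocol summary: plate cells (96-well), add compound at 5 concentrations, incubate 48 h, interpolate endpoints linearly. Here, GI50 denotes the concentration required for 50% inhibition of growth.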 The source made the active and inactive calls. No stated cut-off is given here; in the data, active = GI50 up to about 1.1 µM and inactive = higher.
Tests used:
Assay in all cases: NCI anticancer screen, dose series, 48 h
786-0 = test system: 786-0
CCRF-CEM = test system: CCRF-CEM
HCC 2998 = test system: HCC 2998
Hs-578T = test system: Hs-578T
IGROV-1 = test system: IGROV-1
LOX IMVI = test system: LOX IMVI
MDA-N = test system: MDA-N
MOLT-4 = test system: MOLT-4
NCI-H226 = test system: NCI-H226
NCI-H522 = test system: NCI-H522
OVCAR-5 = test system: OVCAR-5
SF-268 = test system: SF-268
SK-MEL-28 = test system: SK-MEL-28
SK-OV-3 = test system: SK-OV-3
SW-620 = test system: SW-620
TK-10 = test system: TK-10
U-251 = test system: U-251

SMILES | GI50 (786-0) | GI50 (CCRF-CEM) | GI50 (HCC 2998) | GI50 (Hs-578T) | GI50 (IGROV-1) | GI50 (LOX IMVI) | GI50 (MDA-N) | GI50 (MOLT-4) | GI50 (NCI-H226) | GI50 (NCI-H522) | GI50 (OVCAR-5) | GI50 (SF-268) | GI50 (SK-MEL-28) | GI50 (SK-OV-3) | GI50 (SW-620) | GI50 (TK-10) | GI50 (U-251)
COc1ccc2c(c1)CCCN2S(=O)(=O)c1ccccc1[N+](=O)[O-] | 58.5 µM (inactive) | 33.7 µM (inactive) | 35.6 µM (inactive) | 43.7 µM (inactive) | 34.3 µM (inactive) | 32.4 µM (inactive) | 3.73 µM (inactive) | 14.4 µM (inactive) | 44.2 µM (inactive) | 26.7 µM (inactive) | 84.3 µM (inactive) | 49.5 µM (inactive) | 68.5 µM (inactive) | 24 µM (inactive) | 17.4 µM (inactive) | 54.8 µM (inactive) | 24.3 µM (inactive)
c1ccc(-c2c3c(nc4c2CC[C@H]4NC2=NCCN2)[C@@H](NC2=NCCN2)CC3)cc1 | > 100 µM (inactive) | > 100 µM (inactive) | 27 µM (inactive) | > 100 µM (inactive) | 40 µM (inactive) | 59 µM (inactive) | > 100 µM (inactive) | 56.2 µM (inactive) | > 73.1 µM (inactive) | > 100 µM (inactive) | > 100 µM (inactive) | 63.4 µM (inactive) | > 100 µM (inactive) | > 100 µM (inactive) | > 100 µM (inactive) | > 100 µM (inactive) | 9.31 µM (inactive)
CCC/C(Cl)=N/OC(=O)Nc1cc(C(F)(F)F)ccc1OC | 6.05 µM (inactive) | 1.91 µM (inactive) | 16.9 µM (inactive) | 27.1 µM (inactive) | 16.6 µM (inactive) | 4.46 µM (inactive) | 12.1 µM (inactive) | 2.1 µM (inactive) | 15.5 µM (inactive) | 1.56 µM (inactive) | 17.6 µM (inactive) | 16.1 µM (inactive) | 14.5 µM (inactive) | 6.17 µM (inactive) | 3.55 µM (inactive) | 18.5 µM (inactive) | 17.7 µM (inactive)
c1ccc(COC2C3COC(O3)C(OCc3ccccc3)C2OCc2ccccc2)cc1 (stereo not drawn) | 64.4 µM (inactive) | 11.2 µM (inactive) | 14.6 µM (inactive) | 31.4 µM (inactive) | 79.1 µM (inactive) | 30.6 µM (inactive) | 63.7 µM (inactive) | 6.75 µM (inactive) | 60.7 µM (inactive) | 15.1 µM (inactive) | 69.5 µM (inactive) | > 100 µM (inactive) | – | > 100 µM (inactive) | 40.1 µM (inactive) | 70.5 µM (inactive) | > 100 µM (inactive)
COc1ccc(C2(C3c4cc(OC)c(OC)cc4CCN3C)SCCCS2)cc1O (stereo not drawn) | > 100 µM (inactive) | > 100 µM (inactive) | > 100 µM (inactive) | 23.7 µM (inactive) | > 100 µM (inactive) | > 100 µM (inactive) | > 100 µM (inactive) | 26 µM (inactive) | – | 41.7 µM (inactive) | > 100 µM (inactive) | > 100 µM (inactive) | 68.2 µM (inactive) | 72.9 µM (inactive) | > 100 µM (inactive) | > 100 µM (inactive) | > 100 µM (inactive)
Cn1c(=O)c(-c2ccccc2)c(O)c2ccccc21 | > 100 µM (inactive) | > 100 µM (inactive) | > 100 µM (inactive) | 66.4 µM (inactive) | > 100 µM (inactive) | > 100 µM (inactive) | > 100 µM (inactive) | > 100 µM (inactive) | > 100 µM (inactive) | > 100 µM (inactive) | > 100 µM (inactive) | > 100 µM (inactive) | > 100 µM (inactive) | – | > 100 µM (inactive) | > 100 µM (inactive) | > 100 µM (inactive)
CN1CCC(CNC(=O)CCCCCCCCC(=O)NCC2(c3ccccc3)CCN(C)CC2)(c2ccccc2)CC1 | 52.4 µM (inactive) | 84.7 µM (inactive) | > 100 µM (inactive) | 84.1 µM (inactive) | > 100 µM (inactive) | > 100 µM (inactive) | > 100 µM (inactive) | > 100 µM (inactive) | > 100 µM (inactive) | > 100 µM (inactive) | > 100 µM (inactive) | 14.3 µM (inactive) | > 100 µM (inactive) | > 100 µM (inactive) | > 100 µM (inactive) | > 100 µM (inactive) | > 100 µM (inactive)
C/C(=N/NC(=S)Nc1ccccc1C)c1ccccn1 | 0.0627 µM (active) | 0.0206 µM (active) | 6.27 µM (inactive) | 15.7 µM (inactive) | < 0.0182 µM (active) | < 0.0149 µM (active) | 0.807 µM (active) | 0.0175 µM (active) | 0.075 µM (active) | 0.583 µM (active) | 0.0843 µM (active) | 0.14 µM (active) | 1.08 µM (active) | 0.052 µM (active) | < 0.0177 µM (active) | 0.259 µM (active) | 0.0571 µM (active)
C=CCOC(=O)c1c(C)[n+]([O-])c2cc(Cl)c(Cl)cc2[n+]1[O-] | 29.4 µM (inactive) | 17.3 µM (inactive) | 12.9 µM (inactive) | 27.5 µM (inactive) | 4.62 µM (inactive) | 15.5 µM (inactive) | 20.6 µM (inactive) | 15.1 µM (inactive) | 19.1 µM (inactive) | 12.4 µM (inactive) | 30.4 µM (inactive) | 14.7 µM (inactive) | 16.1 µM (inactive) | 28.8 µM (inactive) | – | 29.4 µM (inactive) | 31.8 µM (inactive)
O=c1c2cn[nH]c2nc2scc(-c3ccc(Cl)cc3)n12 | > 100 µM (inactive) | > 100 µM (inactive) | > 100 µM (inactive) | 41.7 µM (inactive) | > 100 µM (inactive) | > 100 µM (inactive) | > 100 µM (inactive) | > 100 µM (inactive) | > 100 µM (inactive) | > 100 µM (inactive) | > 100 µM (inactive) | > 100 µM (inactive) | > 100 µM (inactive) | > 100 µM (inactive) | > 100 µM (inactive) | > 100 µM (inactive) | > 100 µM (inactive)
COC(=O)C1(NC(=O)C(Cc2ccccc2)N(C(=O)OC(C)(C)C)C(=O)OC(C)(C)C)CCCC1 (stereo not drawn) | > 10 µM (inactive) | 22.9 µM (inactive) | 19.9 µM (inactive) | > 100 µM (inactive) | > 100 µM (inactive) | > 100 µM (inactive) | > 100 µM (inactive) | 31.8 µM (inactive) | > 100 µM (inactive) | – | 58.6 µM (inactive) | > 100 µM (inactive) | > 100 µM (inactive) | > 100 µM (inactive) | > 100 µM (inactive) | 32.7 µM (inactive) | 49.5 µM (inactive)
C/C(Cc1ccc2c(c1)OCO2)=N\N=c1\sc2ccccc2n1C | > 100 µM (inactive) | 92.5 µM (inactive) | > 100 µM (inactive) | > 100 µM (inactive) | > 100 µM (inactive) | > 100 µM (inactive) | 83.2 µM (inactive) | 78.3 µM (inactive) | > 100 µM (inactive) | > 100 µM (inactive) | > 100 µM (inactive) | > 100 µM (inactive) | > 100 µM (inactive) | – | > 100 µM (inactive) | > 100 µM (inactive) | > 100 µM (inactive)
O=C1/C(=C\c2cccc(Oc3ccccc3)c2)S(=O)(=O)C(c2ccccc2)N1c1cc(Cl)ccc1Cl (stereo not drawn) | 16.1 µM (inactive) | 3.05 µM (inactive) | 21.7 µM (inactive) | 33.7 µM (inactive) | 15.6 µM (inactive) | 5.25 µM (inactive) | 10.3 µM (inactive) | 3.84 µM (inactive) | – | 18.3 µM (inactive) | 20.4 µM (inactive) | 18.5 µM (inactive) | 17.3 µM (inactive) | 39.4 µM (inactive) | 3.83 µM (inactive) | 22.3 µM (inactive) | 16.5 µM (inactive)
c1ccc2c(c1)nc1n2CNCC1 | > 100 µM (inactive) | – | > 100 µM (inactive) | > 100 µM (inactive) | 94 µM (inactive) | 24.2 µM (inactive) | > 100 µM (inactive) | 43.3 µM (inactive) | > 100 µM (inactive) | 43.1 µM (inactive) | > 100 µM (inactive) | > 100 µM (inactive) | 48.3 µM (inactive) | > 100 µM (inactive) | 34.7 µM (inactive) | > 100 µM (inactive) | > 100 µM (inactive)
O=C(N[C@@H](Cc1ccccc1)B(O)O)[C@H](Cc1cccc2ccccc12)NC(=O)N1CCOCC1 | 0.00451 µM (active) | 0.000186 µM (active) | 0.00182 µM (active) | 0.00175 µM (active) | 0.00618 µM (active) | 0.00124 µM (active) | < 0.01 µM (active) | 0.000371 µM (active) | 0.00029 µM (active) | < 0.01 µM (active) | 0.00281 µM (active) | 0.00161 µM (active) | 0.00106 µM (active) | – | 0.00258 µM (active) | 0.00566 µM (active) | 0.00423 µM (active)
CCCCc1ccc(Nc2nc(S)c3ncn(COCCO)c3n2)cc1 | > 100 µM (inactive) | 25.7 µM (inactive) | 36.8 µM (inactive) | 36.3 µM (inactive) | 36 µM (inactive) | 27.4 µM (inactive) | 41.9 µM (inactive) | 33.5 µM (inactive) | 88.7 µM (inactive) | 20.9 µM (inactive) | 86.5 µM (inactive) | > 10 µM (inactive) | – | > 100 µM (inactive) | 69 µM (inactive) | 66.2 µM (inactive) | 35 µM (inactive)
CCOP(=O)(OCC)C(c1ccc(F)cc1)N(C(=O)NC(F)(F)F)c1ccc(F)cc1 (stereo not drawn) | > 100 µM (inactive) | > 100 µM (inactive) | > 100 µM (inactive) | > 100 µM (inactive) | > 100 µM (inactive) | > 100 µM (inactive) | > 100 µM (inactive) | > 100 µM (inactive) | > 100 µM (inactive) | > 100 µM (inactive) | > 100 µM (inactive) | > 100 µM (inactive) | > 100 µM (inactive) | – | > 100 µM (inactive) | > 100 µM (inactive) | > 100 µM (inactive)

From ChEMBL document CHEMBL1201862, “PubChem BioAssay data set” (2004)
